Data: ChEMBL document CHEMBL1153142, “Scaffold hopping from pyridones to imidazo[1,2-a]pyridines. New positive allosteric modulators of metabotropic glutamate 2 receptor” (Bioorg Med Chem Lett, 2010)

Legend:
[1] = target: T1, Metabotropic glutamate receptor 2 (Homo sapiens, UniProt Q14416); assay: Allosteric modulation of human mGluR2 expressed in CHO cells by [35S]GTPgammaS binding assay relative to glutamate; assay type: functional, cell-based
Target sequence in this assay (Q14416 19-872 limits assumed): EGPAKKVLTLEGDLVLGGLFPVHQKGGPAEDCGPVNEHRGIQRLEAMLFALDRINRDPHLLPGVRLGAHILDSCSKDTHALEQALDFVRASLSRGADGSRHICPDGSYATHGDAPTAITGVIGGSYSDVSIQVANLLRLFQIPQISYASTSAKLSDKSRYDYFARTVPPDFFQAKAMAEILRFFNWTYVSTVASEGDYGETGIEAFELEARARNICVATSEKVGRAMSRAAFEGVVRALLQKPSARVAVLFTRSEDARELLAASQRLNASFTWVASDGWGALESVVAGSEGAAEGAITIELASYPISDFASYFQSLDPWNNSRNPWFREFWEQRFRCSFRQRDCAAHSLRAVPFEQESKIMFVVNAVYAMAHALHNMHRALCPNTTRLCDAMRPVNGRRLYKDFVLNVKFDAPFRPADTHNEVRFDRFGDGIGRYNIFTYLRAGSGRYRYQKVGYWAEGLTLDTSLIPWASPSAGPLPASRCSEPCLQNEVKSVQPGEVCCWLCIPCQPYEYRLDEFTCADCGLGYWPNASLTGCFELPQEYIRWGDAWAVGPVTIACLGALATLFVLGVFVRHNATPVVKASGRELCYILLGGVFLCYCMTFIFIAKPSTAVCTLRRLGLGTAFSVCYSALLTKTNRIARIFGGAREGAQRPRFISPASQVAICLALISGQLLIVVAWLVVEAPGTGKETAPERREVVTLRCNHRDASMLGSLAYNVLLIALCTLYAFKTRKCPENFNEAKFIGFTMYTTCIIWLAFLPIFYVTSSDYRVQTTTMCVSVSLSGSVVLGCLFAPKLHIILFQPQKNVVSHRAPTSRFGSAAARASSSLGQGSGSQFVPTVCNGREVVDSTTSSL

[2] = target: T1, Metabotropic glutamate receptor 2; assay: Allosteric modulation of human mGluR2 expressed in CHO cells by [35S]GTPgammaS binding assay; assay type: functional, cell-based
Target sequence in this assay (Q14416 whole entry): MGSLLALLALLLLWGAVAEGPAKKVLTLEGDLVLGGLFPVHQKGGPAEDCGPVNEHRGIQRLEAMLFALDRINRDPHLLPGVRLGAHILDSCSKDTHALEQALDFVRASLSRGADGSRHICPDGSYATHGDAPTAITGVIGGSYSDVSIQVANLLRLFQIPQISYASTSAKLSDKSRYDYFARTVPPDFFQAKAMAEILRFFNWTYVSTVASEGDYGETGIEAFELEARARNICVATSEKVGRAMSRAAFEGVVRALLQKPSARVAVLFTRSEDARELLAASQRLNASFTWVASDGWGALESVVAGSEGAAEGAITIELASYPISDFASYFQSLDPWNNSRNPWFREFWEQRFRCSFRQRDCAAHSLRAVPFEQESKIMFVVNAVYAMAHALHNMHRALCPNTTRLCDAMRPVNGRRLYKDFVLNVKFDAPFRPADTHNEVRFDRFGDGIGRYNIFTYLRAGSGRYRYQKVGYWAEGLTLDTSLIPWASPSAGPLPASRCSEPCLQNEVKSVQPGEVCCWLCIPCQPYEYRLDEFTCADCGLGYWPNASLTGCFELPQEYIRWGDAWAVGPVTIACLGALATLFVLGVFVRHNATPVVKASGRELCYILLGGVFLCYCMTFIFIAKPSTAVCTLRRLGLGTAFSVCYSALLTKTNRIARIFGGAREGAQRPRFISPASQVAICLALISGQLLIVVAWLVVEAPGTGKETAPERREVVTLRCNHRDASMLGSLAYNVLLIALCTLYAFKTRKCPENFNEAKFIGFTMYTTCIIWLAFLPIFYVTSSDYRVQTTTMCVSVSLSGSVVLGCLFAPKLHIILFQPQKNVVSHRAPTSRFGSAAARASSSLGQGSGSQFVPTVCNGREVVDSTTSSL

CCCc1cnc2c(C#N)c(N3CCN(c4ccccc4)CC3)ccn12
Emax [1]: 241%

CCCCn1ccc(N2CCN(c3nc(C)cc(C)n3)CC2)c(C#N)c1=O
Emax [1]: 235%

N#Cc1c(-c2ccc(NC3CC3)c(Cl)c2)ccn2c(CC(F)(F)F)cnc12
Emax [1]: 187%

N#Cc1c(-c2ccc(OCc3ccccc3)cc2)ccn2c(CC(F)(F)F)cnc12
Emax [1]: 222%

Cc1c(OCc2cccc(-c3ccc(C(=O)O)cc3)c2)cc2c(c1C)C(=O)C(C1CCCC1)C2 (centres undefined)
Emax [1]: 213%

CC(C)(C)c1ccc(-c2ccn3c(CC(F)(F)F)cnc3c2C#N)cc1
Emax [1]: 272%

CCc1cnc2c(C#N)c(N3CCN(c4nc(C)cc(C)n4)CC3)ccn12
Emax [1]: 142%

CCCc1cnc2c(C#N)c(N3CCN(c4ncccn4)CC3)ccn12
Emax [1]: 248% | EC50 [2]: > 3.16 µM

N#Cc1c(-c2ccc(N3CCCCC3)cc2)ccn2c(CC(F)(F)F)cnc12
Emax [1]: 123%

Cc1cc(C)nc(N2CCN(c3ccn4c(CC(F)(F)F)cnc4c3C#N)CC2)n1
Emax [1]: 128%

N#Cc1c(N2CCN(c3ncccn3)CC2)ccn2c(CC(F)(F)F)cnc12
Emax [1]: 231%

N#Cc1c(N2CCN(c3ncccn3)CC2)ccn2c(CCC3CC3)cnc12
Emax [1]: 229%

CCc1cnc2c(C#N)c(N3CCN(c4ncccn4)CC3)ccn12
Emax [1]: 214% | EC50 [2]: > 3.16 µM

N#Cc1c(-c2ccc(Oc3ccccc3)cc2)ccn2c(CC(F)(F)F)cnc12
Emax [1]: 200%

CCCc1cnc2c(C#N)c(N3CCN(c4nc(C)cc(C)n4)CC3)ccn12
Emax [1]: 179%

N#Cc1c(N2CCN(c3ccccc3)CC2)ccn2c(-c3ccccc3)cnc12
Emax [1]: 73% | EC50 [2]: > 3.16 µM
